Here are results for ten compounds from patent US12590072B2, “Thyromimetics” (Autobahn Therapeutics, Inc., priority 2020, dated 2026).

The structures appear in SMILES notation. Some results are limits rather than exact numbers.

The target of test [1] is T1, TRα (TR-receptor hybrid with yeast Gal4 DBD) (Homo sapiens, UniProt P10827).
T1 construct: expressed in transfected cells; host or cells: HEK293
T1 sequence (P10827 1-410 isoform P10827-2): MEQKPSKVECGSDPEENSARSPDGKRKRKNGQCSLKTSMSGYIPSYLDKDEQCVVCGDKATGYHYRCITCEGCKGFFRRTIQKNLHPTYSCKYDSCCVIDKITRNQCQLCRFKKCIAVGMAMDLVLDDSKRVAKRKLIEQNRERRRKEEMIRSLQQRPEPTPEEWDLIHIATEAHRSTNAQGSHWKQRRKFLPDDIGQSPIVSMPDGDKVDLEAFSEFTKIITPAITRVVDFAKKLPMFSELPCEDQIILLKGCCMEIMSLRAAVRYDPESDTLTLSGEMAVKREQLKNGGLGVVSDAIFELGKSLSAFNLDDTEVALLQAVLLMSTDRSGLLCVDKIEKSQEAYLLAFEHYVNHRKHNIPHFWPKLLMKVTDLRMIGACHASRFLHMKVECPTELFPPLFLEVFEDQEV
As to the kind of experiment: Thyroid-hormone reporter-gene assay, TRα. It counts as cell-based. As to conditions: HEK293-derived reporter cells, firefly luciferase, 24 hr incubation. The method, then:
(§1) Compounds were tested for thyroid-hormone receptor activity using TR reporter-gene assays. Reporter cells used in the assays express a TR-receptor hybrid (either TRα or TRβ) in which the native N-terminal DNA binding domain (DBD) has been replaced with that of the yeast Gal4 DBD. The reporter gene, firefly luciferase, is functionally linked to the Gal4 upstream activation sequence (UAS). Both cell lines were derived from human embryonic kidney (HEK293). • Step 1: A suspension of reporter cells was prepared in cell recovery medium containing 10% charcoal-stripped FBS, and dispensed into assay plates. […] These intermediate stocks were subsequently diluted directly into compound screening medium containing 10% charcoal-stripped FBS to generate “2×-concentration” treatment media (containing 0.2, 0.4 or 0.8% DMSO). • Step 3: At the end of the pre-incubation period, culture media were discarded from the assay plates, and all wells received 100 μl of compound screening medium. 100 μl of each of the previously prepared “2×-concentration” treatment media were dispensed into duplicate assay wells, thereby achieving the desired final treatment concentrations. The final concentration of DMSO in all assay wells was 0.1, 0.2 or 0.4%. Assay plates were incubated for 24 hr in a cell culture incubator (37° C./5% CO2/85% humidity). • Step 4: At the 24 h assay endpoint, treatment media were discarded and 100 μl/well of luciferase detection reagent was added. Relative luminometer units (RLUs) were quantified from each assay well.

The target of test [2] is T2, TRβ (TR-receptor hybrid with yeast Gal4 DBD) (Homo sapiens, UniProt P10828).
T2 construct: expressed in transfected cells; host or cells: HEK293
T2 sequence (P10828 217-461 limits assumed): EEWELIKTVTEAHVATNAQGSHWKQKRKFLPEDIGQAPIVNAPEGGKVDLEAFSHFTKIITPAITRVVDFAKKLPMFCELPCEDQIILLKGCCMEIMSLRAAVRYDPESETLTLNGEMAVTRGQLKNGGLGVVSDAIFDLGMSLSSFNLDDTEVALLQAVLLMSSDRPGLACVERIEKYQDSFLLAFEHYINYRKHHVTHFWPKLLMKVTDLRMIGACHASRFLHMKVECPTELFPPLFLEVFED
As to the kind of experiment: Thyroid-hormone reporter-gene assay, TRβ. It counts as cell-based. The conditions noted are these: for EC50: HEK293-derived reporter cells, firefly luciferase, 24 hr incubation; for T3-SI, selectivity index EC50 (TRα)/EC50 (TRβ): calculated from the reporter-gene EC50 values. The method, then:
as §1

Turning to `CC(C)c1cc(Cc2c(Cl)cc(-n3nc(C#N)c(O)nc3=O)cc2Cl)ccc1O` [Compound 1, 2-(3,5-dichloro-4-(4-hydroxy-3-isopropylbenzyl)phenyl)-5-hydroxy-3-oxo-2,3-dihydro-1,2,4-triazine-6-carbonitrile], the EC50 in test [1] was 100 to 1000 nM; in test [2], 10 to 100 nM. Moreover, the “T3-SI, selectivity index EC50 (TRα)/EC50 (TRβ)” value (“T3-SI, selectivity index EC50” below) in test [2] was “+++ (T3-SI>30×)”.
On to `CC(C)c1c(O)ccc(Cc2c(Cl)cc(-n3nc(C#N)c(O)nc3=O)cc2Cl)c1F` [Compound 2, 2-(3,5-dichloro-4-(2-fluoro-4-hydroxy-3-isopropylbenzyl)phenyl)-5-hydroxy-3-oxo-2,3-dihydro-1,2,4-triazine-6-carbonitrile], for which the EC50 in test [1] lay in the range of 10 to 100 nM. In addition, in test [2], the EC50 is 10 to 100 nM and the “T3-SI, selectivity index EC50” value was “++ (3×<T3-SI≤30×)”.
In the case of `N#Cc1nn(-c2cc(Cl)c(Cc3ccc(O)c(-c4cccc(OC(F)F)c4)c3)c(Cl)c2)c(=O)nc1O` [Compound 3, 2-(3,5-dichloro-4-((3′-(difluoromethoxy)-6-hydroxy-[1,1′-biphenyl]-3-yl)methyl)phenyl)-5-hydroxy-3-oxo-2,3-dihydro-1,2,4-triazine-6-carbonitrile], the EC50 in test [1] was above 1000 nM. In addition, in test [2], the EC50 was in the range of 100 to 1000 nM and the “T3-SI, selectivity index EC50” value was “+++ (T3-SI>30×)”.
In the case of `N#Cc1nn(-c2cc(Cl)c(Cc3ccc(O)c(Cc4ccc(F)cc4)c3)c(Cl)c2)c(=O)nc1O` [Compound 4, 2-(3,5-dichloro-4-(3-(4-fluorobenzyl)-4-hydroxybenzyl)phenyl)-5-hydroxy-3-oxo-2,3-dihydro-1,2,4-triazine-6-carbonitrile], the EC50 is above 1000 nM in test [1] and 100 to 1000 nM in test [2]. Moreover, the “T3-SI, selectivity index EC50” value in test [2] is “++ (3×<T3-SI≤30×)”.
The like results for `CC(C)c1cc(Cc2c(Cl)cc(-n3nc(C#N)c(O)nc3=O)cc2C(C)C)ccc1O` [Compound 5, 2-(3-chloro-4-(4-hydroxy-3-isopropylbenzyl)-5-isopropylphenyl)-5-hydroxy-3-oxo-2,3-dihydro-1,2,4-triazine-6-carbonitrile] were, in that order, 10 to 100 nM, below 10 nM and “++ (3×<T3-SI≤30×)”.
On to `CC(C)c1cc(Cc2c(Cl)cc(-n3nc(C#N)c(O)nc3=O)c(F)c2Cl)ccc1O` [Compound 6, 2-(3,5-dichloro-2-fluoro-4-(4-hydroxy-3-isopropylbenzyl)phenyl)-5-hydroxy-3-oxo-2,3-dihydro-1,2,4-triazine-6-carbonitrile], for which, in test [1], the EC50 lay in the range of 100 to 1000 nM. In addition, in test [2], the EC50 was 100 to 1000 nM and the “T3-SI, selectivity index EC50” value is “++ (3×<T3-SI≤30×)”.
The compound `CC(C)c1c(O)ccc(Cc2c(Cl)cc(-c3cc(F)c(O)c(F)c3)cc2Cl)c1F` [Compound 7, 3′,5′-dichloro-3,5-difluoro-4′-(2-fluoro-4-hydroxy-3-isopropylbenzyl)-[1,1′-biphenyl]-4-ol] returned an EC50 in test [1] above 1000 nM. Besides, in test [2], the EC50 fell in the range of 100 to 1000 nM and the “T3-SI, selectivity index EC50” value is “++ (3×<T3-SI≤30×)”.
Regarding `CC(C)c1c(O)ccc(Cc2c(Cl)cc(-c3ccc(F)c(O)c3F)cc2Cl)c1F` [Compound 8, 3′,5′-dichloro-2,4-difluoro-4′-(2-fluoro-4-hydroxy-3-isopropylbenzyl)-[1,1′-biphenyl]-3-ol], the EC50 in test [1] and in test [2] was above 1000 nM each time.
As for `CC(C)c1cc(Cc2c(Cl)cc(-c3cc(O)no3)cc2Cl)ccc1O` [Compound 9, 5-(3,5-dichloro-4-(4-hydroxy-3-isopropylbenzyl)phenyl)isoxazol-3-ol], in test [1], the EC50 lay in the range of 100 to 1000 nM. In addition, in test [2], the EC50 was 10 to 100 nM and the “T3-SI, selectivity index EC50” value is “++ (3×<T3-SI≤30×)”.
In test [1], `O=c1nc(O)cnn1-c1cc(Cl)c(Cc2ccc(O)c(-c3cccc(OC(F)F)c3)c2)c(Cl)c1` [Compound 10, 2-(3,5-dichloro-4-((3′-(difluoromethoxy)-6-hydroxy-[1,1′-biphenyl]-3-yl)methyl)phenyl)-5-hydroxy-1,2,4-triazin-3(2H)-one] registered an EC50 below 10 nM. In test [2], the EC50 is below 10 nM and the “T3-SI, selectivity index EC50” value is “++ (3×<T3-SI≤30×)”.

By EC50 is commonly meant the midpoint of the concentration-response curve. Low values mean a more potent agent, high ones a less potent agent.
